Assay results reported in publication PMC10287695, “Non-covalent inhibitors of thioredoxin glutathione reductase with schistosomicidal activity in vivo” (Nature Communications, 2023).
Where “and” joins values, the source holds several entries; their conditions need not be identical. Equal entries are not always repeated.

Legend:
TGR [1] = biological target: T1, TGR (Schistosoma mansoni, UniProt Q962Y6); experiment: Reversibility by jump dilution; assay type: biochemical; conditions: for % Activity (ID list), D60 / % Inhibition (ID list), D60: D60: diluted 1:100, activity determined after 60 min; for % Activity, 0 min / Inhibitor (rate), 0 min: [0, D0]: 15 min preincubation inhibitor + TGR + NADPH, diluted 1:100, then activity determined immediately; for % Activity, 0 min / % Activity, 60 min / % Activity, -15: relative to DMSO; for % Activity, 60 min / Inhibitor (rate), 60 min: [60, D60]: 15 min preincubation inhibitor + TGR + NADPH, diluted 1:100, then activity determined after 60 min; for Inhibitor (rate), -15 / % Activity, -15: [-15]: 15 min preincubation inhibitor + TGR + NADPH, then activity determined, replicates; for Inhibitor (rate), -15 / Inhibitor (rate), 0 min / Inhibitor (rate), 60 min: raw rate; for % Activity (ID list) / % Inhibition (ID list): before dilution (-15)
T1 construct: made in house
T1 sequence (Q962Y6 1-598): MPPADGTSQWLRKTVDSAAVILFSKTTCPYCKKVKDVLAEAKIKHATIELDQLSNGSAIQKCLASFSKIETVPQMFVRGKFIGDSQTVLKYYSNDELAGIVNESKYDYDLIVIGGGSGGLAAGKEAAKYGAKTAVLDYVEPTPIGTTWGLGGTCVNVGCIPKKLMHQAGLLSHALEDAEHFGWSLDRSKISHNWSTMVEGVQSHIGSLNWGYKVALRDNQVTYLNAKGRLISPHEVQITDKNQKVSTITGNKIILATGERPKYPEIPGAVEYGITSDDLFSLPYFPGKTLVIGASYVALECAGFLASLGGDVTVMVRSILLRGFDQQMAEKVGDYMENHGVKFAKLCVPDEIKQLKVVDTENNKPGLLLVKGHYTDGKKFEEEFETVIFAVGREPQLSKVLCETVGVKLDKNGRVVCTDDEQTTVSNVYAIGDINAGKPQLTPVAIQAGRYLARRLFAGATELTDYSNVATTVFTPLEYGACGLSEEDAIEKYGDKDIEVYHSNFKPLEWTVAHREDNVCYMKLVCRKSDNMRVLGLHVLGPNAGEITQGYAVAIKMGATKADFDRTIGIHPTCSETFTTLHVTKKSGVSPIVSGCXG
Description: A reaction of 370 nM TGR, 100 µM NADPH, and 250 µM inhibitor was incubated for 15 min at room temperature. A 100x dilution of the reaction was made and the activity was determined immediately and after 60 min.

[2] = test system: S. mansoni juvenile worms (21 days); experiment: Schistosomicidal activity ex vivo, juvenile worms (21 days); assay type: cell-based; conditions: for % viability / viability at 5 µM / viability at 15 µM / viability at 30 µM: 23 day S. mansoni worms, 48 HR; for LD50 ex vivo S. mansoni 21 days: juvenile worms, 48 h exposure; for viability at 5 µM / viability at 15 µM / viability at 30 µM: Schistosoma mansoni; for viability at 15 µM: Conc. 15 µM; for viability at 30 µM: Conc. 30 µM
Description: Three-week old, female Swiss-Webster mice obtained from the Charles River were housed in the Comparative Research Center of Rush University Medical Center. Mice were infected by percutaneous tail exposure to about 200 S. mansoni or 50 S. japonicum cercaria for adult worms and about 1000 cercaria for juvenile S. mansoni worms through natural transdermal penetration of the cercariae for 1 h[81].
DMSO formulated compounds were diluted with phenol red free M199 medium or RPMI medium for NTS or juvenile and adult worms, respectively, at <1% DMSO final concentrations. NTS, juvenile and adult worms from overnight cultures were tested against compounds in triplicate. Controls were treated with DMSO alone or 5 µM AF as a positive control in appropriate medium. […] Schistosome viabilities in the presence of the compounds were assessed using this formula: % Viability = Averages of Test / Averages of DMSO Control x 100.

TGR [3] = biological target: T1, TGR; experiment: Time dependence of inhibition; assay type: biochemical; set-up: avg % inhib, 0.5 hr / avg % inhib, 1 hr / avg % inhib, 2 hr / avg % inhib, 3 hr / avg % inhib, 6 hr / avg % inhib, 24 hr: tested at 50 µM; conditions: panel d Time Dependence; for avg % inhib, 0.5 hr / avg % inhib, 1 hr / avg % inhib, 2 hr / avg % inhib, 3 hr / avg % inhib, 6 hr / avg % inhib, 24 hr: average; for % inhib, 0.5 hr / % inhib, 1 hr / % inhib, 2 hr / % inhib, 3 hr / % inhib, 6 hr / % inhib, 24 hr: replicates
Description: TGR was incubated at room temperature (up to 6 h) and at 4 °C for 6 to 24 h with 50 µM inhibitor and 100 µM NADPH for the indicated times. Then DTNB (3 mM) and NADPH (100 µM) were added, and the reaction was monitored at A412 for 5 min. The assay was done in triplicate.

[4] = Cytotoxicity in mammalian cells (Cell Titer Glo); assay type: cell-based; conditions: African green monkey, Vero cells, relative to untreated control
Description: Following overnight incubation, formulated DMSO-compound stock solutions were diluted with DMEM at <1% DMSO final concentrations. […] Vero cells treated similarly with different concentrations of PZQ, MZM and AF (Cayman Chemicals) were used as positive controls.

[5] = D0: diluted 1:100, activity determined immediately, list for plotting

| SMILES | % Activity (ID list), D0 (TGR [1]; [5]) | % Activity (ID list), D60 (TGR [1]; list for plotting) | % Inhibition (ID list), D60 (TGR [1]; list for plotting) | % Activity, 0 min (TGR [1]) | % Activity, 60 min (TGR [1]) | Inhibitor (rate), -15 (TGR [1]) | % Activity, -15 (TGR [1]) | % Activity (ID list) (TGR [1]; list for plotting) | % Inhibition (ID list) (TGR [1]; list for plotting) | LD50 ex vivo S. mansoni 21 days [2] [µM] | Inhibitor (rate), 0 min (TGR [1]) | Inhibitor (rate), 60 min (TGR [1]) | viability at 5 µM ([2]; Conc. 5 µM) [%] | viability at 15 µM [2] [%] | viability at 30 µM [2] [%] | rate, 0.5 hr (TGR [3]) | avg % inhib, 0.5 hr (TGR [3]) [%] | % inhib, 0.5 hr (TGR [3]) | rate, 1 hr (TGR [3]) | avg % inhib, 1 hr (TGR [3]) [%] | also measured |
| --- | --- | --- | --- | --- | --- | --- | --- | --- | --- | --- | --- | --- | --- | --- | --- | --- | --- | --- | --- | --- | --- |
| CC(=O)OC[C@H]1O[C@@H]([S-])[C@H](OC(C)=O)[C@@H](OC(C)=O)[C@@H]1OC(C)=O.CCP(CC)CC.[Au+] [AF, auranofin, reference compound] | 1.9% and -0.049% | 3.7% and -3.0% and -2.8% | 96.3% and 103.0% and 102.8% | 1.94% and 1.91% and -0.04934% | 3.69% and -3.0493% and -2.833% | 0.001018 and 0.001002 and 0.001033 | 0.7444% and 0.7656% and 0.7594% | 0.744% and 0.8% and 0.759% | 100.0% | 0.62 ± 0.01 |  |  |  |  |  |  |  |  |  |  | reversibility of TGR inhibition (TGR [1]; 250 µM inhibitor, 100-fold jump dilution): irreversible; % Inhibition (ID list), D0 (TGR [1]; [5]): 98.1% and 100.0%; % viability ([2]; Conc. 0.5 µM): 50.0296%; % viability ([2]; Conc. 1 µM): 15.8933%; % viability ([2]; Conc. 2.5 µM): 5.6364%; % viability ([2]; Conc. 5 µM): 0.3335% |
| Cc1oc(-c2ccccc2)nc1CN[C@@H]1C[C@@H]2C[C@H]([C@H]1C)C2(C)C [Compound 3] | 107.0% and 101.9% and 120.0% | 112.2% | -12.2% and -2.4% and -4.0% | 106.977% and 101.851% and 120.346% | 112.121% and 113.417% and 109.021% | 0.01322 and 0.01449 | 38.3633% and 40.1163% | 38.4% and 40.1% | 61.6367% and 59.8837% and 55% | 10.9 ± 0.39 | 0.04937 and 0.04787 and 0.05217 | 0.04847 and 0.05055 and 0.05088 | 66 | 43.1 | 32.1 | 0.04131 and 0.04323 and 0.04147 | 24.9564 | 25.1766% and 23.3647% and 26.3279% | 0.03461 and 0.03399 and 0.03516 | 32.5613 | % inhib, 1 hr (TGR [3]): 32.6392% and 32.4657% and 32.5791%; rate, 2 hr (TGR [3]): 0.02942 and 0.0272 and 0.02813; avg % inhib, 2 hr (TGR [3]): 39.6519%; % inhib, 2 hr (TGR [3]): 35.4116% and 41.9052% and 41.639%; rate, 3 hr (TGR [3]): 0.02162 and 0.0222 and 0.02273; avg % inhib, 3 hr (TGR [3]): 45.1094%; % inhib, 3 hr (TGR [3]): 45.8417% and 44.831% and 44.6555%; rate, 6 hr (TGR [3]): 0.01203 and 0.009487 and 0.01329; avg % inhib, 6 hr (TGR [3]): 55.8948%; % inhib, 6 hr (TGR [3]): 54.3454% and 63.1143% and 50.2247%; rate, 24 hr (TGR [3]): 0.008207 and 0.008188 and 0.0092; avg % inhib, 24 hr (TGR [3]): 56.6355%; % inhib, 24 hr (TGR [3]): 56.206% and 58.6882% and 55.0122% |
| Cc1oc(C2CCCCC2)nc1CN[C@@H]1C[C@@H]2C[C@H]([C@H]1C)C2(C)C [Compound 4] | 102.5% and 102.9% and 117.3% | 106.3% | -15.2% and -8.7% and -6.3% | 102.47% and 102.936% and 117.347% | 106.315% and 104.173% and 103.664% | 0.01214 and 0.0123 and 0.01219 | 35.2293% and 34.0532% and 34.3671% | 35.2% and 34.1% and 34.4% | 64.8% and 65.9% and 65.6% | 14.2 ± 2.13 | 0.04729 and 0.04838 and 0.05087 | 0.04596 and 0.04643 and 0.04838 | 65.7 | 45.3 | 27.7 | 0.06468 and 0.06599 and 0.06659 | 18.4758 | 18.6722% and 19.1992% and 17.556% | 0.05061 and 0.05195 and 0.05284 | 30.1534 | % inhib, 1 hr (TGR [3]): 31.2738% and 29.387% and 29.7994%; rate, 2 hr (TGR [3]): 0.03578 and 0.03672 and 0.03844; avg % inhib, 2 hr (TGR [3]): 45.3087%; % inhib, 2 hr (TGR [3]): 46.082% and 46.1584% and 43.6859%; rate, 3 hr (TGR [3]): 0.02569 and 0.02601 and 0.02662; avg % inhib, 3 hr (TGR [3]): 55.4006%; % inhib, 3 hr (TGR [3]): 55.9121% and 55.5156% and 54.774%; rate, 6 hr (TGR [3]): 0.01404 and 0.01371; avg % inhib, 6 hr (TGR [3]): 70.958%; % inhib, 6 hr (TGR [3]): 70.2542% and 71.6618%; rate, 24 hr (TGR [3]): 0.004212 and 0.004652 and 0.005413; avg % inhib, 24 hr (TGR [3]): 87.319%; % inhib, 24 hr (TGR [3]): 88.741% and 87.5248% and 85.6913% |
| CC1C(NCc2cn(C3OCC(O)C(O)C3O)c3ccccc23)CC2CC1C2(C)C (stereo not drawn) [Compound 9] |  |  |  |  |  |  |  |  |  |  |  |  |  |  |  |  |  |  |  |  | viability at 24 h, 5 µM ([4]; 5 µM): 92.7%; viability at 24 h, 10 µM ([4]; 10 µM): 90.7%; viability at 24 h, 25 µM ([4]; 25 µM): 89.9%; viability at 24 h, 35 µM ([4]; 35 µM): 89.6%; viability at 24 h, 50 µM ([4]; 50 µM): 83.5% |
